Data taken from PMC8234864, “Early Effects of the Soluble Amyloid β25-35 Peptide in Rat Cortical Neurons: Modulation of Signal Transduction Mediated by Adenosine and Group I Metabotropic Glutamate Receptors” (International Journal of Molecular Sciences, 2021).
Where no end group is shown, it is not given here.

What was measured:
A2AR [1] = molecular target: T1, A2AR (Rattus norvegicus, UniProt P30543); assay: [3H]ZM241385 radioligand binding in intact cortical neurons; conditions: for A2AR Bmax: [3H]ZM241385 saturation binding
T1 construct: endogenous in cells; host or cells: rat primary cortical neurons (intact)
Description: Concerning adenosine receptor assessment by radioligand binding, [^3H]DPCPX and [^3H]ZM241385 were employed as selective A1R and A2AR radioligands, as described previously, to determine A1R and A2AR density, respectively. Briefly, primary cortical neurons growth in 24-well plates were washed with serum-free DMEM and pre-incubated with 2 U/mL ADA at 37 °C for 30 min to remove endogenous adenosine. After incubation, the radioligands [^3H]DPCPX (1–20 nM) or [^3H] ZM241385 (1–20 nM) were added in the absence or the presence of CPA in a concentration 10^4 times higher than the radioligand, to obtain non-specific binding to A1R, or 5 mM theophylline, to obtain non-specific binding to A2AR. A specific adenosine uptake inhibitor (1 µM dipyridamole) was added to the reaction mixture to block adenosine receptor ligands’ binding to adenosine transporters. After incubation at 25 °C for 2 h in a final volume of 250 µL, cells were washed with 500 µL of ice-cold buffer and disrupted with 0.2% SDS. Well contents were then transferred to vials and a scintillation liquid mixture was added to measure radioactivity. Two wells from each plate were reserved for protein concentration measurement.

[2] = system: mGluR1 (GRM1) gene expression; assay: mGluR1 gene expression by real-time PCR; type: cell-based, rat; conditions: 25 µM, 24 or 48 h, vs control neurons
Description: (§1) Total RNA was extracted using an ABI 6100 Nucleic Acid PrepStation according to the manufacturer’s protocol (Applied Biosystems Inc., Foster City, CA, USA). Total RNA from cells was isolated and stored at −80 °C. The quality of isolated RNA was estimated by the ratio A260/A280 and was in the range of 1.9–2.1. RNA integrity was evaluated by agarose gel electrophoresis according to MIQE guidelines using the “bleach gel” method. RNA concentrations were determined from the A260. One microgram of total RNA was reverse transcribed using Applied Biosystems High-Capacity cDNA Archive Kit.
(§2) To assess relative gene expression in neurons, quantitative real-time RT-PCR analysis was performed with an Applied Biosystems Prism 7500 Fast Sequence Detection System using TaqMan® universal PCR master mix according to the manufacturer’s specifications. […] Levels of RNA expression were determined using the 7500 Fast System SDS software version 1.3.1 (Applied Biosystems) according to the 2^−ΔΔCt method. […] The results from three independent repeat assays, performed in different plates each using different cDNA’s from the cultures analyzed, were averaged to produce a single mean quantity value for each mRNA.

A2AR [3] = molecular target: T1, A2AR; assay: A2AR-mediated AC stimulation (CGS 21680); type: cell-based; conditions: 25 µM, 24 h; 1 µM CGS 21680
Description: AC activity was determined as previously reported by Murphy with minor modifications. Briefly, control or treated cells were pre-incubated in serum-free DMEM buffered with 20 mM HEPES, pH 7.4, supplemented with 100 µM Ro 20-1724 and 2 U/mL ADA, for 10 min at 37 °C. AC activity was stimulated using specific ligands for 15 min at 37 °C in a final volume of 250 µL. The reaction was stopped by adding 500 µL 0.1 M HCl in absolute ethanol. Once centrifuged at 12,000× g for 10 min, supernatants were evaporated in speed-vac and resuspended in 150 µL assay buffer (50 mM Tris-HCl, 4 mM EDTA). Fifty microliters of the sample were used to determine cAMP accumulation using protein kinase A as a cAMP binding protein and [^3H]cAMP as radioligand. A cAMP standard curve (0–16 pmol) was prepared in the same buffer. Incubation was stopped by rapid filtration through Whatman GF/B filters.

[4] = system: A2BR (ADORA2B) gene expression; assay: A2BR gene expression by real-time PCR; type: cell-based, rat; conditions: 25 µM, 24 or 48 h
Description: as §1, §2

[5] = neurons exposed to 25 µM for 24 h
[6] = neurons exposed to 25 µM for 48 h

T1 sequence (P30543 whole entry): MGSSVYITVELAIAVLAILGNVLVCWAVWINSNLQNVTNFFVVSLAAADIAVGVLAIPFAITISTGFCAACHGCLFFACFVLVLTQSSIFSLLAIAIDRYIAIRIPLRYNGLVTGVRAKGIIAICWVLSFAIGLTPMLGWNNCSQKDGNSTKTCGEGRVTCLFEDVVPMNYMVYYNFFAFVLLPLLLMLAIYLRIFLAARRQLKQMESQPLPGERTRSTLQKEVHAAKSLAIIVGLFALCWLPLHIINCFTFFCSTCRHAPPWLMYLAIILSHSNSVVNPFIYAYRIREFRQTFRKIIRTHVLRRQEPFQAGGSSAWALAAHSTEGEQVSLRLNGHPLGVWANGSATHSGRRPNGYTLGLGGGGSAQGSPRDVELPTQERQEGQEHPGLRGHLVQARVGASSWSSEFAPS

- A2AR affinity (1/KD), change vs control (A2AR [1]; 25 µM, 24 or 48 h): no significant variation
- Total A2AR density (Bmax), change vs control (A2AR [1]; 25 µM, 24 h): not altered
- Total A2AR density (Bmax) increase over control value (A2AR [1]; 25 µM, 48 h): 80%
- Kd (A2AR [1]; [5]): 10.3 ± 1.22 nM
- A2AR Bmax (A2AR [1]; [5]): 557 ± 56 fmol/mg prot
- Kd (A2AR [1]; [6]): 14 ± 4.69 nM
- A2AR Bmax (A2AR [1]; [6]): 1178 ± 43 fmol/mg prot
- A2AR-mediated stimulation of AC activity (A2AR [3]): did not alter
Sequence: GSNKGAIIGLM [Aβ25-35]
- mGluR1 gene expression [2]: increase
- A2BR gene expression [4]: significantly increased
